Patent publication EP1339379B1, “NOVEL USE OF PROTEIN HYDROLYSATES” (Henkel Kommanditgesellschaft auf Aktien, priority 2000, dated 2002)

Test: Hair-restructuring effect by HP-DSC: melting point of permed hair strands after post-treatment with the active
Settings: melting point of the hair (DSC, Perkin Elmer DSC-7); permed strands dipped 10 min at 23°C in 1% aqueous solution of the active at pH 3, rinsed 1 min, dried, rested 16 h; comparison without post-treatment 149,8
Description: Strähnen der Fa. Alkinco (0,5g, Code 6634) wurden einer herkömmlichen Dauerwellbehandlungen mit dem Handelsprodukt Poly Lock-Normale Dauerwelle unterzogen. Im Rahmen dieser Dauerwellbehandlung wurden die Fasern in einem ersten Schritt für 40 Minuten bei Raumtemperatur der Reduktionslösung (enthaltend 7,9 Gew.-% Thioglykolsäure) ausgesetzt, mit reinem Wasser gespült und anschließend bei Raumtemperatur für 10 Minuten fixiert (Oxidationslösung, enthaltend 2,6 Gew.-% Wasserstoffperoxid). Nach der oxidativen Behandlung wurden die Fasern gespült und getrocknet.
Die Strähnen wurden jeweils bei einer Temperatur von 23°C 10 Minuten in eine 1% ige wäßrige Lösung der jeweiligen Wirkstoffe bei einem pH - Wert von 3, welcher mit Natronlauge oder Salzsäure eingestellt wurde, getaucht. Anschließend wurde jede Haarsträhne 1 Minute mit klarem Wasser gespült, getrocknet und 16 h ruhen gelassen.
Mittels einer DSC-Analyse (Perkin Elmer DSC-7) wurden die folgenden in Tabelle 1 dargestellten Schmelzpunkte ermittelt. Eine genaue Beschreibung der Methode findet sich beispielsweise in der DE 196 173 95 A1

Question: With Poly-D/L-Alanin as the substance, how does the “Schmelzpunkt in °C” value read?
Answer: 151,8 °C

Question: For Poly-L-Serin, which “Schmelzpunkt in °C” value is on record?
Answer: 151,9 °C
